In ChEMBL document CHEMBL2062432, “Design and synthesis of novel DFG-out RAF/vascular endothelial growth factor receptor 2 (VEGFR2) inhibitors: 2. Synthesis and characterization of a novel imide-type prodrug for improving oral absorption” (Bioorg Med Chem, 2012):

How the values were obtained:
[1] = Metabolic stability in human liver microsomes assessed as compound remaining at 30 uM after 60 mins by HPLC analysis; assay type: ADME, Microsome; details: read-out: Stability
[2] = Thermodynamic solubility of the compound in JP2 solution at pH 6.8 in presence of 20 mM bile acid; assay type: physicochemical; details: JP2 solution with 20 mM bile acid, read-out: Therm_solubility
Mus musculus [3] = assay: AUC (0 to 24 hrs) in mouse assessed as tert-butyl 5-(2-(cyclopropanecarboxamido)thiazolo[5,4-b]pyridin-5-yloxy)-2-fluorophenylcarbamate level at 32.3 mg/kg, po administered as single dose; assay type: ADME, organism-based, Plasma; parameters: time < 24 hr, dose 32.3 mg/kg, route oral; details: in vivo
Mus musculus [4] = assay: Inhibition of VEGFR2-mediated ERK1/2 phosphorylation in human A375 cells xenografted athymic nude F344/N Jcl-rnu/rnu […] at 12.9 mg/kg, po administered as single dose after 4 hrs by immunoblotting relative to vehicle-treated control; values are per cent of control; details: A-375, po
Rattus norvegicus [5] = assay: AUC (0 to 24 hrs) in nude rat assessed as tert-butyl 2-chloro-3-(1-cyanocyclopropyl)benzoyl(5-(2-(cyclopropanecarboxamido)thiazolo[5,4-b]pyridin-5-yloxy)-2-fluorophenyl)carbamate level at 64.6 mg/kg, po administered as single dose; assay type: ADME, organism-based, Plasma; parameters: time < 24 hr, dose 64.6 mg/kg, route oral; details: in vivo
Canis familiaris [6] = assay: AUC (0 to 24 hrs) in dog assessed as 2-chloro-3-(1-cyanocyclopropyl)-N-[5-({2-[(cyclopropylcarbonyl) amino][1,3]thiazolo[5,4-b]pyridin-5-yl}oxy)-2-fluorophenyl] benzamide level at 32.3 mg/kg, po administered as single dose; assay type: ADME, organism-based, Canis lupus familiaris, Plasma; parameters: time < 24 hr, dose 32.3 mg/kg, route oral; details: in vivo
Rattus norvegicus [7] = assay: AUC (0 to 24 hrs) in nude rat assessed as 2-chloro-3-(1-cyanocyclopropyl)-N-[5-({2-[(cyclopropylcarbonyl) amino][1,3]thiazolo[5,4-b]pyridin-5-yl}oxy)-2-fluorophenyl] benzamide level at 12.9 mg/kg, po administered as single dose; assay type: ADME, organism-based, Plasma; parameters: time < 24 hr, dose 12.9 mg/kg, route oral; details: in vivo
Canis familiaris [8] = assay: AUC (0 to 24 hrs) in dog assessed as tert-butyl 2-chloro-3-(1-cyanocyclopropyl)benzoyl(5-(2-(cyclopropanecarboxamido)thiazolo[5,4-b]pyridin-5-yloxy)-2-fluorophenyl)carbamate level at 32.3 mg/kg, po administered as single dose; assay type: ADME, organism-based, Canis lupus familiaris, Plasma; parameters: time < 24 hr, dose 32.3 mg/kg, route oral; details: in vivo
Rattus norvegicus [9] = assay: AUC (0 to 24 hrs) in nude rat assessed as tert-butyl 5-(2-(cyclopropanecarboxamido)thiazolo[5,4-b]pyridin-5-yloxy)-2-fluorophenylcarbamate level at 64.6 mg/kg, po administered as single dose; assay type: ADME, organism-based, Plasma; parameters: time < 24 hr, dose 64.6 mg/kg, route oral; details: in vivo
Liver microsomes [10] = assay: Ratio of prodrug conversion assessed a 2-chloro-3-(1-cyanocyclopropyl)-N-[5-({2-[(cyclopropylcarbonyl) amino][1,3]thiazolo[5,4-b]pyridin-5-yl}oxy)-2-fluorophenyl] benzamide level to drug metabolism assessed as tert-butyl 5-(2-(cyclopropanecarboxamido)thiazolo[5,4-b]pyridin-5-yloxy)-2-fluorophenylcarbamate level in rat liver microsomes; assay type: ADME, Microsome
Liver microsomes [11] = assay: Ratio of prodrug conversion assessed a 2-chloro-3-(1-cyanocyclopropyl)-N-[5-({2-[(cyclopropylcarbonyl) amino][1,3]thiazolo[5,4-b]pyridin-5-yl}oxy)-2-fluorophenyl] benzamide level to drug metabolism assessed as tert-butyl 5-(2-(cyclopropanecarboxamido)thiazolo[5,4-b]pyridin-5-yloxy)-2-fluorophenylcarbamate level in human liver microsomes; assay type: ADME, Microsome
Liver [12] = assay: Ratio of prodrug conversion assessed a 2-chloro-3-(1-cyanocyclopropyl)-N-[5-({2-[(cyclopropylcarbonyl) amino][1,3]thiazolo[5,4-b]pyridin-5-yl}oxy)-2-fluorophenyl] benzamide level to drug metabolism assessed as tert-butyl 5-(2-(cyclopropanecarboxamido)thiazolo[5,4-b]pyridin-5-yloxy)-2-fluorophenylcarbamate level in mouse liver microsomes; assay type: ADME, Microsome
Liver [13] = assay: Ratio of prodrug conversion assessed a 2-chloro-3-(1-cyanocyclopropyl)-N-[5-({2-[(cyclopropylcarbonyl) amino][1,3]thiazolo[5,4-b]pyridin-5-yl}oxy)-2-fluorophenyl] benzamide level to drug metabolism assessed as tert-butyl 5-(2-(cyclopropanecarboxamido)thiazolo[5,4-b]pyridin-5-yloxy)-2-fluorophenylcarbamate level in dog liver microsomes; assay type: ADME, Canis lupus familiaris, Microsome
Canis familiaris [14] = assay: AUC (0 to 24 hrs) in dog assessed as tert-butyl 5-(2-(cyclopropanecarboxamido)thiazolo[5,4-b]pyridin-5-yloxy)-2-fluorophenylcarbamate level at 32.3 mg/kg, po administered as single dose; assay type: ADME, organism-based, Canis lupus familiaris, Plasma; parameters: time < 24 hr, dose 32.3 mg/kg, route oral; details: in vivo
Canis familiaris [15] = organism: Canis familiaris; assay: Ratio of AUC (0 to 24 hrs) in dog assessed as 2-chloro-3-(1-cyanocyclopropyl)-N-[5-({2-[(cyclopropylcarbonyl) amino][1,3]thiazolo[5,4-b]pyridin-5-yl}oxy)-2-fluorophenyl] benzamide level to AUC (0 to 24hrs) in dog assessed as tert-butyl 5-(2-(cyclopropanecarboxamido)thiazolo[5,4-b]pyridin-5-yloxy)-2-fluorophenylcarbamate level; assay type: ADME, organism-based, Canis lupus familiaris; details: in vivo
Rattus norvegicus [16] = assay: Ratio of AUC (0 to 24 hrs) assessed as 2-chloro-3-(1-cyanocyclopropyl)-N-[5-({2-[(cyclopropylcarbonyl) amino][1,3]thiazolo[5,4-b]pyridin-5-yl}oxy)-2-fluorophenyl] benzamide level to AUC (0 to 24hrs) assessed as tert-butyl 5-(2-(cyclopropanecarboxamido)thiazolo[5,4-b]pyridin-5-yloxy)-2-fluorophenylcarbamate level in nude rat at 12.9 mg/kg, po; assay type: ADME, organism-based; parameters: dose 12.9 mg/kg, route oral; details: in vivo
Rhesus monkey [17] = assay: AUC (0 to 24 hrs) in monkey assessed as 2-chloro-3-(1-cyanocyclopropyl)-N-[5-({2-[(cyclopropylcarbonyl) amino][1,3]thiazolo[5,4-b]pyridin-5-yl}oxy)-2-fluorophenyl] benzamide level at 32.3 mg/kg, po administered as single dose; assay type: ADME, organism-based, Macaca mulatta, Plasma; parameters: time < 24 hr, dose 32.3 mg/kg, route oral; details: in vivo
Mus musculus [18] = organism: Mus musculus; assay: Ratio of AUC (0 to 24 hrs) in mouse assessed as 2-chloro-3-(1-cyanocyclopropyl)-N-[5-({2-[(cyclopropylcarbonyl) amino][1,3]thiazolo[5,4-b]pyridin-5-yl}oxy)-2-fluorophenyl] benzamide level to AUC (0 to 24hrs) in mouse assessed as tert-butyl 5-(2-(cyclopropanecarboxamido)thiazolo[5,4-b]pyridin-5-yloxy)-2-fluorophenylcarbamate level; assay type: ADME, organism-based; details: in vivo
Rattus norvegicus [19] = assay: AUC (0 to 24 hrs) in nude rat assessed as tert-butyl 2-chloro-3-(1-cyanocyclopropyl)benzoyl(5-(2-(cyclopropanecarboxamido)thiazolo[5,4-b]pyridin-5-yloxy)-2-fluorophenyl)carbamate level at 12.9 mg/kg, po administered as single dose; assay type: ADME, organism-based, Plasma; parameters: time < 24 hr, dose 12.9 mg/kg, route oral; details: in vivo
Mus musculus [20] = assay: Inhibition of VEGFR2-mediated ERK1/2 phosphorylation in human A375 cells xenografted athymic nude F344/N Jcl-rnu/rnu […] at 129 mg/kg, po administered as single dose after 4 hrs by immunoblotting relative to vehicle-treated control; values are per cent of control; details: A-375, po
Mus musculus [21] = assay: Inhibition of VEGFR2-mediated ERK1/2 phosphorylation in human A375 cells xenografted athymic nude F344/N Jcl-rnu/rnu […] at 32.3 mg/kg, po administered as single dose after 4 hrs by immunoblotting relative to vehicle-treated control; values are per cent of control; details: A-375, po
Rhesus monkey [22] = assay: Ratio of AUC (0 to 24 hrs) in monkey assessed as 2-chloro-3-(1-cyanocyclopropyl)-N-[5-({2-[(cyclopropylcarbonyl) amino][1,3]thiazolo[5,4-b]pyridin-5-yl}oxy)-2-fluorophenyl] benzamide level to AUC (0 to 24hrs) in monkey assessed as tert-butyl 5-(2-(cyclopropanecarboxamido)thiazolo[5,4-b]pyridin-5-yloxy)-2-fluorophenylcarbamate level; assay type: ADME, organism-based, Macaca mulatta; details: in vivo
Rhesus monkey [23] = assay: AUC (0 to 24 hrs) in monkey assessed as tert-butyl 5-(2-(cyclopropanecarboxamido)thiazolo[5,4-b]pyridin-5-yloxy)-2-fluorophenylcarbamate level at 32.3 mg/kg, po administered as single dose; assay type: ADME, organism-based, Macaca mulatta, Plasma; parameters: time < 24 hr, dose 32.3 mg/kg, route oral; details: in vivo
Liver [24] = assay: Prodrug conversion in dog liver microsomes assessed as 2-chloro-3-(1-cyanocyclopropyl)-N-[5-({2-[(cyclopropylcarbonyl) amino][1,3]thiazolo[5,4-b]pyridin-5-yl}oxy)-2-fluorophenyl] benzamide level at 10 umol/L after 2 hrs; assay type: ADME, Canis lupus familiaris, Microsome; details: 10 µM
A-375 [25] = assay: Antitumor activity against human A375 cells xenografted in athymic nude F344/N jcl-rnu/rnu […] assessed as tumor regression at 129 mg/kg, po administered BID for 2 weeks measured on day 14 relative to control; assay type: functional
Rhesus monkey [26] = assay: AUC (0 to 24 hrs) in monkey assessed as tert-butyl 2-chloro-3-(1-cyanocyclopropyl)benzoyl(5-(2-(cyclopropanecarboxamido)thiazolo[5,4-b]pyridin-5-yloxy)-2-fluorophenyl)carbamate level at 32.3 mg/kg, po administered as single dose; assay type: ADME, organism-based, Macaca mulatta, Plasma; parameters: time < 24 hr, dose 32.3 mg/kg, route oral; details: in vivo
Rattus norvegicus [27] = assay: AUC (0 to 24 hrs) in nude rat assessed as tert-butyl 5-(2-(cyclopropanecarboxamido)thiazolo[5,4-b]pyridin-5-yloxy)-2-fluorophenylcarbamate level at 12.9 mg/kg, po administered as single dose; assay type: ADME, organism-based, Plasma; parameters: time < 24 hr, dose 12.9 mg/kg, route oral; details: in vivo
Rattus norvegicus [28] = assay: AUC (0 to 24 hrs) in nude rat assessed as 2-chloro-3-(1-cyanocyclopropyl)-N-[5-({2-[(cyclopropylcarbonyl) amino][1,3]thiazolo[5,4-b]pyridin-5-yl}oxy)-2-fluorophenyl] benzamide level at 64.6 mg/kg, po administered as single dose; assay type: ADME, organism-based, Plasma; parameters: time < 24 hr, dose 64.6 mg/kg, route oral; details: in vivo
Mus musculus [29] = assay: AUC (0 to 24 hrs) in mouse assessed as 2-chloro-3-(1-cyanocyclopropyl)-N-[5-({2-[(cyclopropylcarbonyl) amino][1,3]thiazolo[5,4-b]pyridin-5-yl}oxy)-2-fluorophenyl] benzamide level at 32.3 mg/kg, po administered as single dose; assay type: ADME, organism-based, Plasma; parameters: time < 24 hr, dose 32.3 mg/kg, route oral; details: in vivo
Rattus norvegicus [30] = assay: Ratio of AUC (0 to 24 hrs) assessed as 2-chloro-3-(1-cyanocyclopropyl)-N-[5-({2-[(cyclopropylcarbonyl) amino][1,3]thiazolo[5,4-b]pyridin-5-yl}oxy)-2-fluorophenyl] benzamide level to AUC (0 to 24hrs) assessed as tert-butyl 5-(2-(cyclopropanecarboxamido)thiazolo[5,4-b]pyridin-5-yloxy)-2-fluorophenylcarbamate level in nude rat at 64.6 mg/kg, po; assay type: ADME, organism-based; parameters: dose 64.6 mg/kg, route oral; details: in vivo
[31] = Ratio of prodrug conversion assessed a 2-chloro-3-(1-cyanocyclopropyl)-N-[5-({2-[(cyclopropylcarbonyl) amino][1,3]thiazolo[5,4-b]pyridin-5-yl}oxy)-2-fluorophenyl] benzamide level to drug metabolism assessed as tert-butyl 5-(2-(cyclopropanecarboxamido)thiazolo[5,4-b]pyridin-5-yloxy)-2-fluorophenylcarbamate level in monkey liver microsomes; assay type: ADME, Macaca mulatta, Microsome; details: rhesus monkey
Mus musculus [32] = assay: Inhibition of […] ERK1/2 phosphorylation in human A375 cells xenografted po dosed athymic nude F344/N […] administered as single dose after 4 hrs by immunoblotting; assay type: functional, organism-based; details: A-375
A-375 [33] = assay: Antitumor activity against human A375 cells xenografted in athymic nude F344/N jcl-rnu/rnu […] assessed as tumor regression at >32.3 mg/kg, po administered BID for 2 weeks measured on day 14 relative to control; assay type: functional, organism-based

## N#CC1(c2cccc(C(=O)Nc3cc(Oc4ccc5nc(NC(=O)C6CC6)sc5n4)ccc3F)c2Cl)CC1
[1]
  remaining at 1 h, 30 µM: 110%
[2]
  solubility thermodynamic: 3.6 µg/mL

## CC(=O)O.CC(C)(C)OC(=O)N(C(=O)c1cccc(C2(C#N)CC2)c1Cl)c1cc(Oc2ccc3nc(NC(=O)C4CC4)sc3n2)ccc1F
Mus musculus [3]
  AUC: 0.5 µg·h/mL
Mus musculus [4]
  level, % of control at 12.9 mg/kg: 52.7%
Rattus norvegicus [5]
  AUC: 0.08 µg·h/mL
Canis familiaris [6]
  AUC: 25.33 µg·h/mL
Rattus norvegicus [7]
  AUC: 1.39 µg·h/mL
Canis familiaris [8]
  AUC: 0.53 µg·h/mL
Rattus norvegicus [9]
  AUC: 1.8 µg·h/mL
[2]
  solubility thermodynamic: 19 µg/mL
Liver microsomes [10]
  Ratio: 0.76
Liver microsomes [11]
  Ratio: 152
Liver [12]
  Ratio: 19
Liver [13]
  Ratio: 3.3
Canis familiaris [14]
  AUC: 0.63 µg·h/mL
Canis familiaris [15]
  Ratio AUC: 40
Rattus norvegicus [16]
  Ratio AUC: 2.4
Rhesus monkey [17]
  AUC: 9.9 µg·h/mL
Mus musculus [18]
  Ratio AUC: 9.8
Rattus norvegicus [19]
  AUC: 0.02 µg·h/mL
Mus musculus [20]
  level, % of control at 129 mg/kg: 20.1%
Mus musculus [21]
  level, % of control at 32.3 mg/kg: 34.1%
Rhesus monkey [22]
  Ratio AUC: 330
Rhesus monkey [23]
  AUC: 0.03 µg·h/mL
Liver [24]
  Drug metabolism: 2.3%
A-375 [25]
  T/C: 6.4%
Rhesus monkey [26]
  AUC: 0.53 µg·h/mL
Rattus norvegicus [27]
  AUC: 0.57 µg·h/mL
Rattus norvegicus [28]
  AUC: 4.28 µg·h/mL
Mus musculus [29]
  AUC: 4.9 µg·h/mL
Rattus norvegicus [30]
  Ratio AUC: 2.4
[31]
  Ratio: 3

## CC(C)(C)OC(=O)N(C(=O)c1cccc(C2(C#N)CC2)c1Cl)c1cc(Oc2ccc3nc(NC(=O)C4CC4)sc3n2)ccc1F
Mus musculus [32]
  inhibition: Dose-dependent effect
A-375 [33]
  Activity: Dose-dependent effect

## CC(C)(C)OC(=O)N(C(=O)c1cccc(C2(C#N)CC2)c1Cl)c1cc(Oc2ccc3nc(NC(=O)C4CC4)sc3n2)ccc1F.O
[2]
  solubility thermodynamic: 49 µg/mL

## CCOC(=O)N(C(=O)c1cccc(C2(C#N)CC2)c1Cl)c1cc(Oc2ccc3nc(NC(=O)C4CC4)sc3n2)ccc1F
[2]
  solubility thermodynamic: 0.79 µg/mL
